Organism: Rattus norvegicus
Experiment: DrugMatrix - Regimen: Daily Repeat
Type: toxicity, organism-based, Sprague-Dawley
Design: regimen Daily Repeat, gender Male, age 6-8 weeks
Conditions: in vivo, po, route oral GAVAGE, vehicle 100 % WATER; for ABSOLUTE BASOPHIL / ABSOLUTE EOSINOPHIL / ABSOLUTE LYMPHOCYTE / ABSOLUTE MONOCYTE / ABSOLUTE SEGMENTED NEUTROPHIL / BASOPHIL / EOSINOPHIL / ERYTHROCYTE COUNT / HEMATOCRIT / HEMOGLOBIN / LEUKOCYTE COUNT / LYMPHOCYTE / MEAN CORPUSCULAR HEMOGLOBIN / MEAN CORPUSCULAR HEMOGLOBIN CONCENTRATION / MEAN CORPUSCULAR VOLUME / MONOCYTE / NEUTROPHIL / NUCLEATED RED BLOOD CELLS / PLATELET COUNT: tissue Blood; for ALANINE AMINOTRANSFERASE / ALBUMIN / ALKALINE PHOSPHATASE / ASPARTATE AMINOTRANSFERASE / BLOOD UREA NITROGEN / CARBON DIOXIDE / CHLORIDE / CHOLESTEROL / CREATINE PHOSPHOKINASE / CREATININE / GLUCOSE / LACTATE DEHYDROGENASE / LIPASE / PHOSPHORUS / POTASSIUM / SODIUM / TOTAL BILIRUBIN / TOTAL PROTEIN / URIC ACID: tissue Plasma
[1] = 0 mg/kg, 72 h, dose level Control, time 3 day
[2] = 0 mg/kg, 120 h, dose level Control, time 5 day
[3] = 25 mg/kg, 72 h, dose level High, time 3 day

Structure (SMILES): O=P1(N(CCCl)CCCl)NCCCO1 (centres undefined) [CYCLOPHOSPHAMIDE ANHYDROUS]
- ABSOLUTE BASOPHIL [1]: 0 CELLS/uL
- ABSOLUTE EOSINOPHIL [1]: 32.5 CELLS/uL
- ABSOLUTE LYMPHOCYTE [1]: 9305.83 CELLS/uL
- ABSOLUTE MONOCYTE [1]: 43.83 CELLS/uL
- ABSOLUTE SEGMENTED NEUTROPHIL [1]: 817.83 CELLS/uL
- BASOPHIL [1]: 0%
- EOSINOPHIL [1]: 0.33%
- ERYTHROCYTE COUNT [1]: 5.38 x10E6/uL
- HEMATOCRIT [1]: 33.63%
- HEMOGLOBIN [1]: 13.17 G/DL
- LEUKOCYTE COUNT [1]: 10.2 x10E3/uL
- LYMPHOCYTE [1]: 91.17%
- MEAN CORPUSCULAR HEMOGLOBIN [1]: 24.5 pg
- MEAN CORPUSCULAR HEMOGLOBIN CONCENTRATION [1]: 39.13 G/DL
- MEAN CORPUSCULAR VOLUME [1]: 62.53 fL
- MONOCYTE [1]: 0.5%
- NEUTROPHIL [1]: 8%
- NUCLEATED RED BLOOD CELLS [1]: 0.17 /100WBC
- PLATELET COUNT [1]: 858 x10E3/uL
- ALANINE AMINOTRANSFERASE [1]: 55.67 u/L
- ALBUMIN [1]: 4.07 G/DL
- ALKALINE PHOSPHATASE [1]: 337 u/L
- ASPARTATE AMINOTRANSFERASE [1]: 84 u/L
- BLOOD UREA NITROGEN [1]: 13.17 mg/dL
- CARBON DIOXIDE [1]: 34.17 mmol/L
- CHLORIDE [1]: 99.33 MEQ/L
- CHOLESTEROL [1]: 78.83 mg/dL
- CREATINE PHOSPHOKINASE [1]: 576.83 u/L
- CREATININE [1]: 0.17 mg/dL
- GLUCOSE [1]: 152.67 mg/dL
- LACTATE DEHYDROGENASE [1]: 147.83 u/L
- LIPASE [1]: 9.5 u/L
- PHOSPHORUS [1]: 10.78 mg/dL
- POTASSIUM [1]: 6.34 MEQ/L
- SODIUM [1]: 144.12 MEQ/L
- TOTAL BILIRUBIN [1]: 0.18 mg/dL
- TOTAL PROTEIN [1]: 6.08 G/DL
- URIC ACID [1]: 0.65 mg/dL
- ABSOLUTE BASOPHIL [2]: 0 CELLS/uL
- ABSOLUTE EOSINOPHIL [2]: 31.17 CELLS/uL
- ABSOLUTE LYMPHOCYTE [2]: 7918.33 CELLS/uL
- ABSOLUTE MONOCYTE [2]: 58.33 CELLS/uL
- ABSOLUTE SEGMENTED NEUTROPHIL [2]: 725.5 CELLS/uL
- BASOPHIL [2]: 0%
- EOSINOPHIL [2]: 0.33%
- ERYTHROCYTE COUNT [2]: 5.32 x10E6/uL
- HEMATOCRIT [2]: 33.53%
- HEMOGLOBIN [2]: 13.17 G/DL
- LEUKOCYTE COUNT [2]: 8.73 x10E3/uL
- LYMPHOCYTE [2]: 90.33%
- MEAN CORPUSCULAR HEMOGLOBIN [2]: 24.82 pg
- MEAN CORPUSCULAR HEMOGLOBIN CONCENTRATION [2]: 39.33 G/DL
- MEAN CORPUSCULAR VOLUME [2]: 63.12 fL
- MONOCYTE [2]: 0.67%
- NEUTROPHIL [2]: 8.67%
- NUCLEATED RED BLOOD CELLS [2]: 0 /100WBC
- PLATELET COUNT [2]: 1144.83 x10E3/uL
- ALANINE AMINOTRANSFERASE [2]: 60.5 u/L
- ALBUMIN [2]: 3.97 G/DL
- ALKALINE PHOSPHATASE [2]: 343.17 u/L
- ASPARTATE AMINOTRANSFERASE [2]: 80.83 u/L
- BLOOD UREA NITROGEN [2]: 15 mg/dL
- CARBON DIOXIDE [2]: 31 mmol/L
- CHLORIDE [2]: 99.75 MEQ/L
- CHOLESTEROL [2]: 71.5 mg/dL
- CREATINE PHOSPHOKINASE [2]: 237.17 u/L
- CREATININE [2]: 0.17 mg/dL
- GLUCOSE [2]: 137 mg/dL
- LACTATE DEHYDROGENASE [2]: 146.17 u/L
- LIPASE [2]: 11.5 u/L
- PHOSPHORUS [2]: 10.13 mg/dL
- POTASSIUM [2]: 6 MEQ/L
- SODIUM [2]: 145 MEQ/L
- TOTAL BILIRUBIN [2]: 0.13 mg/dL
- TOTAL PROTEIN [2]: 5.82 G/DL
- URIC ACID [2]: 0.62 mg/dL
- ABSOLUTE BASOPHIL [3]: 0 CELLS/uL
- ABSOLUTE EOSINOPHIL [3]: 0 CELLS/uL
- ABSOLUTE LYMPHOCYTE [3]: 2636 CELLS/uL
- ABSOLUTE MONOCYTE [3]: 11 CELLS/uL
- ABSOLUTE SEGMENTED NEUTROPHIL [3]: 486.33 CELLS/uL
- BASOPHIL [3]: 0%
- EOSINOPHIL [3]: 0%
- ERYTHROCYTE COUNT [3]: 5 x10E6/uL
- HEMATOCRIT [3]: 30.93%
- HEMOGLOBIN [3]: 12.33 G/DL
- LEUKOCYTE COUNT [3]: 3.13 x10E3/uL
- LYMPHOCYTE [3]: 83.67%
- MEAN CORPUSCULAR HEMOGLOBIN [3]: 24.73 pg
- MEAN CORPUSCULAR HEMOGLOBIN CONCENTRATION [3]: 39.87 G/DL
- MEAN CORPUSCULAR VOLUME [3]: 61.97 fL
- MONOCYTE [3]: 0.33%
- NEUTROPHIL [3]: 16%
- NUCLEATED RED BLOOD CELLS [3]: 0 /100WBC
- PLATELET COUNT [3]: 636 x10E3/uL
- ALANINE AMINOTRANSFERASE [3]: 49.33 u/L
- ALBUMIN [3]: 4.03 G/DL
- ALKALINE PHOSPHATASE [3]: 291 u/L
- ASPARTATE AMINOTRANSFERASE [3]: 68 u/L
- BLOOD UREA NITROGEN [3]: 15.67 mg/dL
- CARBON DIOXIDE [3]: 34 mmol/L
- CHLORIDE [3]: 99.5 MEQ/L
- CHOLESTEROL [3]: 84.67 mg/dL
- CREATINE PHOSPHOKINASE [3]: 160 u/L
- CREATININE [3]: 0.13 mg/dL
- GLUCOSE [3]: 147 mg/dL
- LACTATE DEHYDROGENASE [3]: 134 u/L
- LIPASE [3]: 9.67 u/L
- PHOSPHORUS [3]: 10.63 mg/dL
- POTASSIUM [3]: 5.82 MEQ/L
- SODIUM [3]: 144.75 MEQ/L
- TOTAL BILIRUBIN [3]: 0.17 mg/dL
- TOTAL PROTEIN [3]: 5.77 G/DL
- URIC ACID [3]: 0.33 mg/dL

— ChEMBL document CHEMBL3885881, “DrugMatrix”
